Drawing on PubChem BioAssay AID330 (DTP/NCI, 2004), this text covers T/C for 27 molecules.

The assay relates to P388 leukemia ip, CD2F1 mice, survival T/C. As to the kind of experiment: NCI In Vivo Anticancer Drug Screen. Data for tumor model P388 Leukemia (intraperitoneal) in CD2F1 (CDF1) mice. To be noted: endpoint: median survival time, higher = longer survival. The method, boiled down:
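Mice carrying the transplanted tumor received test compound or vehicle. Survival was recorded in each group, and the value is the treated-group measurement divided by that of the vehicle-treated control group.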

The mark [1] stands for this setting: dose: 25.0 mg/kg/injection, schedule: Q04DX003 (ip), vehicle: saline with Tween-80.
The mark [2] stands for this setting: dose: 50.0 mg/kg/injection, schedule: Q04DX003 (ip), vehicle: saline with Tween-80.
The mark [3] stands for this setting: dose: 100.0 mg/kg/injection, schedule: Q04DX003 (ip), vehicle: saline with Tween-80.
The mark [4] stands for this setting: dose: 200.0 mg/kg/injection, schedule: Q04DX003 (ip), vehicle: saline with Tween-80.
Setting [5] is: dose: 400.0 mg/kg/injection, schedule: Q04DX003 (ip), vehicle: saline with Tween-80.
The mark [6] stands for this setting: dose: 50.0 mg/kg/injection, schedule: Q01DX009 (ip), vehicle: saline with Tween-80.
[7] abbreviates: dose: 100.0 mg/kg/injection, schedule: Q01DX009 (ip), vehicle: saline with Tween-80.
Where [8] appears, read: dose: 100.0 mg/kg/injection, schedule: Q01DX009 (ip), vehicle: saline.
[9] abbreviates: dose: 200.0 mg/kg/injection, schedule: Q01DX009 (ip), vehicle: saline.
The mark [10] stands for this setting: dose: 12.5 mg/kg/injection, schedule: Q01DX009 (ip), vehicle: saline.
[11] abbreviates: dose: 25.0 mg/kg/injection, schedule: Q01DX009 (ip), vehicle: saline.
Setting [12] is: dose: 50.0 mg/kg/injection, schedule: Q01DX005 (ip), vehicle: saline with Tween-80.
[13] abbreviates: dose: 100.0 mg/kg/injection, schedule: Q01DX005 (ip), vehicle: saline with Tween-80.
[14] abbreviates: dose: 60.0 mg/kg/injection, schedule: Q01DX005 (ip), vehicle: Klucel (hydroxypropylcellulose) (HPC).
Setting [15] is: dose: 120.0 mg/kg/injection, schedule: Q01DX005 (ip), vehicle: Klucel (hydroxypropylcellulose) (HPC).
The mark [16] stands for this setting: dose: 240.0 mg/kg/injection, schedule: Q01DX005 (ip), vehicle: Klucel (hydroxypropylcellulose) (HPC).
The mark [17] stands for this setting: dose: 50.0 mg/kg/injection, schedule: Q01DX009 (ip), vehicle: saline.
[18] abbreviates: dose: 60.0 mg/kg/injection, schedule: Q01DX005 (ip), vehicle: saline with Tween-80.
The mark [19] stands for this setting: dose: 120.0 mg/kg/injection, schedule: Q01DX005 (ip), vehicle: saline with Tween-80.
Setting [20] is: dose: 240.0 mg/kg/injection, schedule: Q01DX005 (ip), vehicle: saline with Tween-80.
Setting [21] is: dose: 200.0 mg/kg/injection, schedule: Q01DX005 (ip), vehicle: saline with Tween-80.

Values joined by “and” are separate entries in the source; they are usually repeats but may differ in a detail not shown here. Equal entries are not always repeated. Inconclusive results and toxic doses are left out.

In the case of `CC(C)C1OC(/C=C/c2ccccc2)OCC1(C)C` (stereo unspecified), the T/C was 102 % of control under setting [1]; 102 % of control under setting [2]; 104 % of control under setting [3]; 98 % of control under setting [4]; 102 % of control under setting [5].

Turning to `O=c1c(Cl)c2oc3ccc([N+](=O)[O-])cc3nc-2c(Cl)c1Cl`, the T/C by setting is: under setting [6], 109 % of control; under setting [7], 107 % of control.

Take `O=C(O)[C@@H]1[C@H](C(=O)O)[C@H](C(=O)O)C[C@@H]1C(=O)O`: the T/C under setting [8] is 108 % of control and the T/C under setting [9] is 105 % of control.

Turning to `C[N+]12CN3CN(CP(C3)C1)C2`, the T/C (dose: 6.25 mg/kg/injection, schedule: Q01DX009 (ip), vehicle: saline) is 99 % of control; the T/C under setting [10] was 100 % of control; the T/C under setting [11] is 101 % of control.

Take `CC(C)([CH2][Sn]([Cl])([CH2]C(C)(C)c1ccccc1)[O][Sn]([Cl])([CH2]C(C)(C)c1ccccc1)[CH2]C(C)(C)c1ccccc1)c1ccccc1`: the T/C reads like this: (dose: 1.56 mg/kg/injection, schedule: Q01DX005 (ip), vehicle: Klucel (hydroxypropylcellulose) (HPC)) 104 % of control and 97 % of control; (dose: 3.12 mg/kg/injection, schedule: Q01DX005 (ip), vehicle: Klucel (hydroxypropylcellulose) (HPC)) 99 % of control and 100 % of control and 109 % of control; (dose: 6.25 mg/kg/injection, schedule: Q01DX005 (ip), vehicle: Klucel (hydroxypropylcellulose) (HPC)) 100 % of control and 119 % of control and 96 % of control; (dose: 12.5 mg/kg/injection, schedule: Q01DX005 (ip), vehicle: Klucel (hydroxypropylcellulose) (HPC)) 100 % of control and 106 % of control.

For the molecule `COc1ccc(CCN2CCC(Nc3nc4ccccc4n3Cc3ccc(F)cc3)CC2)cc1`, the T/C was 92 % of control under setting [12] and 95 % of control under setting [13].

`O=[N+]([O-])c1cc2[nH]cnc2c([N+](=O)[O-])c1NCCO`: the T/C by setting is: under setting [6], 110 % of control; under setting [7], 108 % of control; (dose: 200.0 mg/kg/injection, schedule: Q01DX009 (ip), vehicle: saline with Tween-80) 94 % of control.

`O=C(O)c1c[nH]c2c(ccc3[nH]cc(C(=O)O)c(=O)c32)c1=O`: the T/C is, setting by setting: under setting [14], 105 % of control; under setting [15], 102 % of control; under setting [16], 92 % of control.

Regarding `ClCC#CCOc1c(Cl)cccc1Cl`, the T/C is 86 % of control under setting [17], 92 % of control under setting [8] and 98 % of control under setting [9].

For the molecule `Oc1ccc(C(O)C2CCCCN2)cc1O` (stereo unspecified), the T/C reads like this: under setting [11], 99 % of control; under setting [17], 108 % of control; under setting [8], 103 % of control; under setting [9], 108 % of control.

For `O=[N+]([O-])c1ccc(Sc2nccc(Cl)n2)c([N+](=O)[O-])c1`, the T/C by setting is: (dose: 50.0 mg/kg/injection, schedule: Q01DX009 (ip), vehicle: suspension in saline) 100 % of control; under setting [8], 92 % of control; (dose: 100.0 mg/kg/injection, schedule: Q01DX009 (ip), vehicle: suspension in saline) 98 % of control; under setting [9], 104 % of control; (dose: 200.0 mg/kg/injection, schedule: Q01DX009 (ip), vehicle: suspension in saline) 91 % of control.

As for `CCc1cc(C)cc(NC(=O)OC2CCCCC2C)c1` (stereo unspecified), the T/C is, setting by setting: under setting [18], 102 % of control; under setting [19], 112 % of control; under setting [20], 111 % of control.

In the case of `COC(=O)c1[nH]c(=O)c(C#N)c(C(=O)OC)c1C(=O)c1ccc2ccccc2c1`, the T/C was 90 % of control under setting [14], 88 % of control under setting [15] and 97 % of control under setting [16].

Take `CCC1(C)C(=O)C(C)(CC)C1=O` (stereo unspecified): the T/C reads like this: under setting [18], 105 % of control; under setting [19], 107 % of control; under setting [20], 116 % of control.

Consider `OCC(O)C1OC(c2ccccc2)OC(CO)C1O` (stereo unspecified), for which the T/C under setting [12] was 100 % of control, the T/C under setting [13] was 109 % of control and the T/C under setting [21] was 102 % of control.

Take `CCC1CCCCN1C(=S)N/N=C(\C)c1ccccn1` (stereo unspecified): the T/C is 106 % of control (dose: 12.5 mg/kg/injection, schedule: Q04DX003 (ip), vehicle: saline with Tween-80); 108 % of control and 115 % of control under setting [1]; 115 % of control under setting [2].

For the molecule `COc1ccc2c(c1)O[C@H]1c3ccc(O)cc3OC[C@@H]21`, the T/C runs as follows: under setting [12], 100 % of control; under setting [13], 91 % of control; under setting [21], 91 % of control.

Consider `CCOc1ccc2c(c1)/C(=C\C=C\C1CC(C)C3CC(OCC)CCC3N1CC)CC(C)N2CC` (stereo unspecified), for which, where the note is “dose: 1.25 mg/kg/injection, schedule: Q01DX009 (ip), vehicle: saline + alcohol”, the T/C is 120 % of control.

For the molecule `COS(=O)(=O)C(F)(F)F`, the T/C (dose: 100.0 mg/kg/injection, schedule: Q01DX001 (ip), vehicle: saline) was 111 % of control; the T/C (dose: 200.0 mg/kg/injection, schedule: Q01DX001 (ip), vehicle: saline) is 111 % of control; the T/C (dose: 400.0 mg/kg/injection, schedule: Q01DX001 (ip), vehicle: saline) is 111 % of control.

For `NNc1ncnc2c1ccn2C1OC(CO)C(O)C1O` (stereo unspecified), the T/C (dose: 6.25 mg/kg/injection, schedule: Q01DX009 (ip), vehicle: saline with Tween-80) is 108 % of control; the T/C (dose: 12.5 mg/kg/injection, schedule: Q01DX009 (ip), vehicle: saline with Tween-80) was 113 % of control; the T/C (dose: 37.5 mg/kg/injection, schedule: Q01DX009 (ip), vehicle: saline with Tween-80) is 118 % of control.

Regarding `CC(=O)c1c(C)n(C)c2c1nnc1ccccc12`, the T/C is, setting by setting: under setting [14], 101 % of control; under setting [15], 97 % of control; under setting [16], 99 % of control.

For `CP1(=O)CCC23CCCCC21O3` (stereo unspecified), the T/C under setting [17] is 104 % of control, the T/C under setting [8] is 111 % of control and the T/C under setting [9] is 95 % of control.

Consider `Nc1nc(N)c2[nH]c(=O)[nH]c2n1`, for which the T/C under setting [12] is 103 % of control, the T/C under setting [13] was 103 % of control and the T/C under setting [21] is 118 % of control.

In the case of `CN(Cc1cnc2nc(N)nc(N)c2n1)c1ccc(C(=O)NC(CCC(=O)OCc2cc3c(cc2Cl)OCO3)C(=O)OCc2cc3c(cc2Cl)OCO3)cc1` (stereo unspecified), the T/C (dose: 0.94 mg/kg/injection, schedule: Q01DX005 (ip), vehicle: saline with Tween-80) was 166 % of control; the T/C (dose: 1.87 mg/kg/injection, schedule: Q01DX005 (ip), vehicle: saline with Tween-80) is 184 % of control and 186 % of control; the T/C (dose: 7.5 mg/kg/injection, schedule: Q01DX005 (ip), vehicle: saline with Tween-80) is 99 % of control and 118 % of control.

For `NCCC(=O)OC1CCCc2c(O)c3c(c(O)c21)C(=O)c1ccccc1C3=O` (stereo unspecified), the T/C reads like this: (dose: 3.12 mg/kg/injection, schedule: Q01DX009 (ip), vehicle: water) 103 % of control; (dose: 6.25 mg/kg/injection, schedule: Q01DX009 (ip), vehicle: water) 94 % of control; (dose: 12.5 mg/kg/injection, schedule: Q01DX009 (ip), vehicle: water) 100 % of control; (dose: 25.0 mg/kg/injection, schedule: Q01DX009 (ip), vehicle: water) 93 % of control; (dose: 50.0 mg/kg/injection, schedule: Q01DX009 (ip), vehicle: water) 93 % of control.

On to `Nc1nc(N)c2nnn(C3OC(CO)C(O)C3O)c2n1` (stereo unspecified), for which the T/C runs as follows: (dose: 3.0 mg/kg/injection, schedule: Q01DX009 (ip), vehicle: saline) 119 % of control; (dose: 12.0 mg/kg/injection, schedule: Q01DX009 (ip), vehicle: saline) 115 % of control; under setting [10], 122 % of control; under setting [11], 105 % of control; under setting [17], 96 % of control and 105 % of control.

For the molecule `CCOC(=O)c1nc2cc(C)c(C)cc2[nH]c1=O`, the T/C runs as follows: under setting [3], 95 % of control; under setting [4], 100 % of control; under setting [5], 104 % of control.
